Experimental findings from the supplement of paper PMC11061612 are described below.

For assay [1], the system named is HuO9 (Osteosarcoma). As to the kind of experiment: Bliss excess, mean over the matrix (fraction); higher = more synergy. In short, it runs like this:
(§1)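 Bliss excess equals the observed combination effect minus the expected value EA + EB − EA·EB, where EA and EB are the effects of each agent alone. Combination Emax is the second-highest inhibition within the matrix. Inhibition was scaled from CellTiter-Glo 2.0 luminescence, with 0 set by vehicle wells and 1 by blank wells, after 72 hours of two-drug dosing of cells plated in 1536-well plates.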

For assay [2], the system named is HLE (Hepatocellular Carcinoma). Described as above. An outline of the steps: as §1
In assay [3] the test system is MSTO-211H (Mesothelioma). The description is as above. An outline of the steps:
as §1

The test system of assay [4] is P31-FUJ (Acute Myeloid Leukemia). Described as above. In short, it runs like this:
as §1

The test system of assay [5] is HCC1143 (Breast Carcinoma). The assay is described as above. An outline of the steps: as §1
The test system of assay [6] is TYK-nu (Ovarian Carcinoma). The assay is described as above. In short, it runs like this:
as §1

The subject of assay [7] is SKN-3 (Head and Neck Carcinoma). The assay is described as above. An outline of the steps: as §1
Assay [8] has as its system SNG-M (Endometrial Carcinoma). The assay is described as above. An outline of the steps:
as §1

Assay [9] deals with SW48 (Colorectal Carcinoma). Described as above. In short, it runs like this:
as §1

The test system of assay [10] is BICR78 (Oral Cavity Carcinoma). Described as above. An outline of the steps:
as §1

Assay [11] relates to CAL-39 (Other Solid Carcinomas). The assay is described as above. An outline of the steps:
as §1

The subject of assay [12] is WSU-DLCL2 (B-Cell Non-Hodgkin's Lymphoma). The description is as above. An outline of the steps: as §1
For assay [13], the system named is SNU-61 (Colorectal Carcinoma). The description is as above. In short, it runs like this:
as §1

Assay [14] relates to KG-1 (Acute Myeloid Leukemia). The assay is described as above. In short, it runs like this:
as §1

In assay [15] the test system is PA-TU-8902 (Pancreatic Carcinoma). Nature of the assay: combination Emax (second highest fraction inhibited in the dose matrix, 72 h); higher = more inhibition; extreme values may be limits of the assay. An outline of the steps: as §1
Assay [16] relates to EFM-192A (Breast Carcinoma). The assay is described as above. In short, it runs like this: as §1
Assay [17] deals with HCC1143 (Breast Carcinoma). Described as above. In short, it runs like this:
as §1

Assay [18] relates to YT (Other Blood Carcinomas). Described as above. An outline of the steps: as §1
Assay [19] has as its system 647-V (Bladder Carcinoma). The assay is described as above. In short, it runs like this: as §1
The subject of assay [20] is SK-LMS-1 (Other Solid Carcinomas). The assay is described as above. An outline of the steps: as §1

With `Cc1nc(Nc2ncc(C(=O)Nc3c(C)cccc3Cl)s2)cc(N2CCN(CCO)CC2)n1` [Dasatinib] + CC(=O)Nc1cccc(-n2c(=O)n(C3CC3)c(=O)c3c(Nc4ccc(I)cc4F)n(C)c(=O)c(C)c32)c1 [Trametinib] (first compound max 2 µM, 7x7, partner max 1 µM), the Bliss excess was 0.0175 in assay [1]; 0.0283 in assay [2]; -0.001 in assay [3]; 0.108 in [4]; 0.0293 in assay [5]; 0.0895 in [6]. In addition, the Bliss excess is 0.004 in assay [7]; -0.0097 in assay [8]; 0.225 in [9]; -0.0401 in assay [10]; 0.0171 in [11]; 0.101 in assay [12]. Further, the Bliss excess in assay [13] came out at 0.0295; in [14], 0.0659. Further, the “combination Emax” value came out at 0.589 in assay [15]; 0.122 in assay [16]; 0.657 in [17]; 0.318 in [18]; 0.483 in [19]; 0.645 in assay [20].

`COc1cccc2c1C(=O)c1c(O)c3c(c(O)c1C2=O)C[C@@](O)(C(=O)CO)C[C@@H]3O[C@H]1C[C@H](N)[C@H](O)[C@H](C)O1` [Doxorubicin] + Cc1cc2ncnn2cc1Nc1ncc2c(n1)n(C1CCOCC1)c(=O)n2C [AZD7648] (first compound max 1 µM, 7x7, partner max 10 µM): the Bliss excess in [1] was determined as 0.0731; in assay [2] it was 0.0309; in assay [3] it was 0.115; in assay [4] it was 0.108; in [5], 0.0202; in [6] it was 0.0591. In addition, the Bliss excess came out at 0.0045 in assay [7]; 0.0194 in assay [8]; 0.0535 in assay [9]; 0.028 in assay [10]; 0.0233 in assay [11]; 0.101 in [12]. Also, the Bliss excess was -0.0124 in assay [13] and 0.0044 in assay [14]. For the same compound, the “combination Emax” value in assay [15] turned out to be 0.372; in assay [16], 0.368; in assay [17], 0.518; in assay [18], 0.862; in [19], 0.958; in assay [20], 0.82.

`COc1cc2ncnc(Nc3ccc(F)c(Cl)c3)c2cc1OCCCN1CCOCC1` [Gefitinib] + CC(C)n1c(=O)n(C)c2cnc3cc(F)c(-c4ccc(OCCCN5CCCCC5)nc4)cc3c21 [AZD1390] (first compound max 10 µM, 7x7, partner max 0.3 µM): the Bliss excess in [1] is -0.058; in assay [2], -0.0487; in assay [3], -0.0571; in assay [4], -0.0201; in assay [5], -0.0572; in assay [6], -0.0851. For the same compound, the Bliss excess in assay [7] is -0.0688; in assay [8] it was -0.109; in assay [9] it was -0.0516; in assay [10], -0.0788; in [11], -0.0004; in [12] it was 0.0143. Moreover, the Bliss excess in assay [13] is -0.0929; in assay [14], -0.0507. For the same compound, the “combination Emax” value in assay [15] is 0.14; in assay [16], 0.262; in [17], 0.253; in [18], 0.185; in [19], 0.0854; in assay [20], 0.12.

`CS(=O)(=O)CCNCc1ccc(-c2ccc3ncnc(Nc4ccc(OCc5cccc(F)c5)c(Cl)c4)c3c2)o1` [Lapatinib] + C[C@@H](Oc1cc(-c2cnn(C3CCNCC3)c2)cnc1N)c1c(Cl)ccc(F)c1Cl [Crizotinib] (first compound max 10 µM, 7x7, partner max 10 µM): the Bliss excess in assay [1] is -0.069; in [2], -0.072; in assay [3] it was -0.0667; in assay [4] it was -0.142; in assay [5], -0.0312; in assay [6], -0.0403. In addition, the Bliss excess in [7] was -0.0299; in assay [8], -0.0413; in assay [9], -0.0662; in assay [10], 0.0073; in assay [11], 0.026; in assay [12], -0.0162. Moreover, the Bliss excess was 0.0198 in assay [13] and -0.0028 in assay [14]. The “combination Emax” value in [15] came out at 0.775; in assay [16], 0.878; in [17], 0.875; in assay [18], 0.939; in [19], 0.906; in assay [20] it was 0.864.

Turning to `CC(=O)c1c(C)c2cnc(Nc3ccc(N4CCNCC4)cn3)nc2n(C2CCCC2)c1=O` [Palbociclib] + CC1(C)CCC(CN2CCN(c3ccc(C(=O)NS(=O)(=O)c4ccc(NCC5CCOCC5)c([N+](=O)[O-])c4)c(Oc4cnc5[nH]ccc5c4)c3)CC2)=C(c2ccc(Cl)cc2)C1 [Venetoclax] (first compound max 10 µM, 7x7, partner max 1 µM), the Bliss excess in [1] was 0.0056; in [2], -0.0399; in assay [3], -0.0922; in assay [4] it was -0.073; in assay [5] it was -0.0237; in assay [6], -0.0026. The Bliss excess in [7] is -0.07; in [8] it was -0.0501; in [9], -0.0251; in assay [10], -0.0611; in assay [11], -0.0566; in assay [12], 0.0277. Moreover, the figures for the Bliss excess in assay [13] and in assay [14] were -0.0361 and 0.0888, respectively. Moreover, the “combination Emax” value amounted to 0.245 in assay [15]; 0.165 in assay [16]; 0.129 in [17]; 0.504 in [18]; 0.098 in [19]; 0.147 in [20].

Consider `CC(=O)c1c(C)c2cnc(Nc3ccc(N4CCNCC4)cn3)nc2n(C2CCCC2)c1=O` [Palbociclib] + Cc1c2c(nn1C)CSCc1cc(n(C)n1)CSc1cc(c3ccccc3c1)OCCCc1c(C(=O)O)n(C)c3c-2c(Cl)ccc13 [AZD5991] (first compound max 10 µM, 7x7, partner max 1 µM), for which the Bliss excess was 0.0088 in assay [1]; -0.0339 in assay [2]; -0.0265 in assay [3]; -0.11 in [4]; 0.0011 in assay [5]; -0.0289 in assay [6]. The Bliss excess in assay [7] was -0.0428; in assay [8], -0.0233; in assay [9] it was 0.0255; in assay [10], -0.0375; in [11], 0.0054; in [12], -0.0052. Further, the Bliss excess in [13] was -0.0371; in assay [14], -0.0169. For the same compound, the “combination Emax” value in assay [15] was 0.283; in assay [16], 0.436; in assay [17] it was 0.287; in assay [18], 1; in assay [19], 0.117; in assay [20], 0.282.

Turning to `CC(=O)c1c(C)c2cnc(Nc3ccc(N4CCNCC4)cn3)nc2n(C2CCCC2)c1=O` [Palbociclib] + Cn1cnc2c(F)c(Nc3ccc(Br)cc3Cl)c(C(=O)NOCCO)cc21 [Selumetinib] (first compound max 10 µM, 7x7, partner max 10 µM), the Bliss excess was -0.064 in [1]; -0.0418 in assay [2]; -0.0714 in [3]; 0.0152 in [4]; 0.0325 in assay [5]; -0.065 in assay [6]. The Bliss excess in assay [7] was 0.0345; in [8], -0.117; in assay [9] it was 0.0668; in assay [10], 0.0133; in assay [11], 0.151; in [12] it was -0.0194. The Bliss excess in assay [13] was 0.0179; in assay [14], -0.0108. Further, the “combination Emax” value is 0.416 in assay [15]; 0.169 in assay [16]; 0.295 in assay [17]; 0.606 in assay [18]; 0.206 in assay [19]; 0.437 in assay [20].
